From paper PMC8472287, “Betulinic Acid Decorated with Polar Groups and Blue Emitting BODIPY Dye: Synthesis, Cytotoxicity, Cell-Cycle Analysis and Anti-HIV Profiling” (Biomedicines, 2021)
Counter-ions that a name gives are not always drawn. Like-named read-outs stand apart in the source and are kept apart here.

How the values were obtained:
HCT116 = assay: MTS cytotoxicity assay, HCT116; assay type: cell-based; details: Homo sapiens, HCT-116, 72 h, 3-day incubation
From the text: (§1) All cells (if not indicated otherwise) were purchased from the American Tissue Culture Collection (ATCC; Manassas, VA, USA). The highly chemosensitive CCRF-CEM line is derived from T lymphoblastic leukaemia, K562 represent cells of chronic myelogenous leukaemia. Colorectal adenocarcinoma HCT116 cell line and its p53 gene knockout counterpart (HCT116p53−/−, Horizon Discovery Ltd., Cambridge, UK) were used as models to assess the impact of p53 deficiency on cell line sensitivity. A549 cells are derived from lung adenocarcinoma and U2OS from human osteosarcoma. CEM-DNR and K562-Tax are well-characterized daunorubicin and paclitaxel-resistant sublines of CCRF-CEM and K562. The CEM-DNR resistant cells overexpress the P-glycoprotein and LRP protein, the K562-Tax overexpress P-glycoprotein but is losing the expression of LRP, which is present at parental K562 cell line. P-glycoprotein belongs to the ABC transporters’ family and is involved in the primary and acquired multidrug resistance phenomenon by the efflux of toxic compounds, LRP protein is involved in the lysosomal degradation. MRC-5 and BJ cell lines were used as a non-tumour control and represent human fibroblasts. The cells were maintained in Nunc/Corning 80 cm^2 plastic tissue culture flasks and cultured in cell culture medium according to ATCC or Horizon recommendations (DMEM/RPMI 1640 with 5 g/L-glucose, 2 mM glutamine, 100 U/mL penicillin, […] streptomycin, 10% fetal calf serum, and NaHCO3).
(§2) To perform the cytotoxicity MTS assay, cell suspensions were prepared and diluted according to the cell type and the expected target cell density (25,000–35,000 cells/mL) based on cell growth characteristics. Cells were added by an automatic pipettor (30 μL) into 384 well microtiter plates. All tested compounds were dissolved in 100% DMSO and four-fold dilutions of the intended test concentration were added in 0.15 μL aliquots at time zero to the microtiter plate wells by the echo-acoustic liquid handler Echo550 (Labcyte, San Jose, CA, USA). The experiments were performed in technical duplicates and at least three biological replicates. The cells were incubated with the tested compounds for 72 h at 37 °C, in a 5% CO2 atmosphere at 99% humidity. At the end of the incubation period, the cells were assayed by using the MTS test. Aliquots (5 µL) of the MTS stock solution were pipetted into each well and incubated for an additional 1–4 h. After this incubation period, the optical density (OD) was measured at 490 nm with an Envision microplate reader (Perkin Elmer, Waltham, Massachusetts, USA). Tumour cell survival (TCS) was calculated using the following equation: TCS = (ODdrug-exposed well/mean ODcontrol wells) × 100%.

MRC-5 = assay: MTS cytotoxicity assay, MRC-5; assay type: cell-based; details: Homo sapiens, MRC5, 72 h, MRC-5 normal fibroblasts, 3-day incubation
From the text: as §1, §2

U2OS = assay: MTS cytotoxicity assay, U2OS; assay type: cell-based; details: Homo sapiens, 72 h, 3-day incubation
From the text: as §1, §2

[1] = tested on: VSV-G pseudotyped HIV-1 particles; assay: microbe, parasite or virus in culture; assay type: cell-based; details: for IC50: read-out: IC50i (50% infection inhibition)
CEM-DNR = assay: MTS cytotoxicity assay, CEM-DNR; assay type: cell-based; details: Homo sapiens, 72 h, CEM-DNR (daunorubicin resistant), 3-day incubation
From the text: as §1, §2

HCT116p53−/− = assay: MTS cytotoxicity assay, HCT116p53−/−; assay type: cell-based; details: Homo sapiens, HCT116-p53-null, 72 h, HCT116p53−/− (null p53 gene), 3-day incubation
From the text: as §1, §2

BJ = assay: MTS cytotoxicity assay, BJ; assay type: cell-based; details: Homo sapiens, 72 h, BJ normal fibroblasts, 3-day incubation
From the text: as §1, §2

K562 = assay: MTS cytotoxicity assay, K562; assay type: cell-based; details: Homo sapiens, 72 h, 3-day incubation
From the text: as §1, §2

A549 = assay: MTS cytotoxicity assay, A549; assay type: cell-based; details: Homo sapiens, 72 h, 3-day incubation
From the text: as §1, §2

CCRF-CEM = assay: MTS cytotoxicity assay, CCRF-CEM; assay type: cell-based; details: Homo sapiens, 72 h, 3-day incubation
From the text: as §1, §2

K562-Tax = assay: MTS cytotoxicity assay, K562-Tax; assay type: cell-based; details: Homo sapiens, 72 h, K562-Tax (paclitaxel-resistant), 3-day incubation
From the text: as §1, §2

in vitro = details: human
[2] = tested on: CA-SP1 processing of HIV-1 Gag polyprotein; assay: Western blot of released virions with anti-HIV-1 CA antibody; assay type: cell-based
CCRF-CEM lymphoblasts = assay: BrU incorporation analysis (RNA synthesis); assay type: cell-based, human; details: 24 h, 5 × IC50 (high concentration)
[3] = Human immunodeficiency virus 1, HEK293, 48 h

## C=C(C)[C@@H]1CC[C@]2(C(=O)N3CCN(CCNC(=O)OC(C)(C)C)CC3)CC[C@]3(C)[C@H](CC[C@@H]4[C@@]5(C)CC[C@H](O)C(C)(C)[C@@H]5CC[C@]43C)[C@@H]12 [Compound 13, Tert-butyl-(2-{4-[(3β)-3-hydroxy-28-oxolup-20(29)-ene-28-yl]piperazine-1-yl}ethyl)-carbamate]
HCT116
  IC50: 6.02 µM
MRC-5
  IC50: 5.18 µM
U2OS
  IC50: 4.16 µM
[1]
  anti-HIV-1 activity (in words): did not exhibit any potent anti-HIV-1 activity
[1]; [3]
  IC50: > 50 µM
CEM-DNR
  IC50: 4.76 µM
Entire cell line panel
  cytotoxic effect in the cell line panel (in words): high cytotoxicity
HCT116p53−/−
  IC50: 4.99 µM
BJ
  IC50: 5.36 µM
K562
  IC50: 5.09 µM
A549
  IC50: 5.15 µM
CCRF-CEM
  IC50: > 50 µM
K562-Tax
  IC50: 8.77 µM
In vitro
  IC50: > 40 µM

## C=C(C)[C@@H]1CC[C@]2(C(=O)NCCCN=[N+]=[N-])CC[C@]3(C)[C@H](CC[C@@H]4[C@@]5(C)CC[C@H](OC(=O)CCNC6=C7C=CC=[N+]7[B-](F)(F)n7cccc76)C(C)(C)[C@@H]5CC[C@]43C)[C@@H]12 [Compound 5, (3β)-N-(3-Azidopropyl)-3-[N´-(4,4-difluoro-4-bora-3a,4a-diaza-s-indacene-8-yl)-β-alanyl]-oxy-lup-20(29)-ene-28-amide]
[1]
  anti-HIV-1 activity (in words): did not exhibit any potent anti-HIV-1 activity
[1]; [3]
  IC50: > 50 µM
Entire cell line panel
  cytotoxic effect in the cell line panel (in words): did not induce any cytotoxic effect
In vitro
  IC50: > 40 µM

## C=C(C)[C@@H]1CC[C@]2(C(=O)NCCCN)CC[C@]3(C)[C@H](CC[C@@H]4[C@@]5(C)CC[C@H](OC(=O)CC(C)(C)C(=O)O)C(C)(C)[C@@H]5CC[C@]43C)[C@@H]12 [Compound 9, 4-{[(3β)-28-[(3-Aminopropyl)amino]-28-oxolup-20(29)-ene-3-yl]oxy}-2,2-dimethyl-4-oxo-butanooic acid hydrochloride]
HCT116
  IC50: > 50 µM
MRC-5
  IC50: > 50 µM
U2OS
  IC50: > 50 µM
[1]; [3]
  IC50: 14 µM
CEM-DNR
  IC50: > 50 µM
Entire cell line panel
  cytotoxic effect in the cell line panel (in words): inactive
[2]
  CA forms identified in released viruses (CA-SP1 processing): not only fully processed p24 CA, but also p25 CA-SP1 protein
HCT116p53−/−
  IC50: > 50 µM
BJ
  IC50: > 50 µM
K562
  IC50: > 50 µM
A549
  IC50: > 50 µM
CCRF-CEM
  IC50: 22.5 µM
K562-Tax
  IC50: > 50 µM
In vitro
  IC50: > 40 µM

## C=C(C)[C@@H]1CC[C@]2(C(=O)N3CCN(CCNC(=O)OC(C)(C)C)CC3)CC[C@]3(C)[C@H](CC[C@@H]4[C@@]5(C)CC[C@H](OC(=O)CC(C)(C)C(=O)O)C(C)(C)[C@@H]5CC[C@]43C)[C@@H]12 [Compound 16, 4-{[(3β)-28-(4-{2-[(Tert-butoxycarbonyl)amino]ethyl}piperazine-1-yl)-28-oxolup-20(29)-ene-3-yl]oxy}-2,2-dimethyl-4-oxobutanoic acid]
HCT116
  IC50: 46.6 µM
MRC-5
  IC50: 44.6 µM
U2OS
  IC50: 44.6 µM
[1]; [3]
  IC50: < 10 µM
[1]
  IC50: 9.1 µM
CEM-DNR
  IC50: > 50 µM
Entire cell line panel
  cytotoxic effect in the cell line panel (in words): did not induce any cytotoxic effect
[2]
  CA forms identified in released viruses (CA-SP1 processing): not only fully processed p24 CA, but also p25 CA-SP1 protein
HCT116p53−/−
  IC50: 44.8 µM
BJ
  IC50: 47.6 µM
K562
  IC50: 47.9 µM
A549
  IC50: 44.9 µM
CCRF-CEM
  IC50: > 50 µM
K562-Tax
  IC50: > 50 µM
In vitro
  IC50: > 40 µM

## C=C(C)[C@@H]1CC[C@]2(C(=O)NCCCNC(=O)OC(C)(C)C)CC[C@]3(C)[C@H](CC[C@@H]4[C@@]5(C)CC[C@H](O)C(C)(C)[C@@H]5CC[C@]43C)[C@@H]12 [Compound 7, Tert-butyl-(3-{[(3β)-3-hydroxy-28-oxolup-20(29)-ene-28-yl]amino}propyl)-carbamate]
HCT116
  IC50: > 50 µM
MRC-5
  IC50: 17.6 µM
U2OS
  IC50: 18.4 µM
[1]
  anti-HIV-1 activity (in words): did not exhibit any potent anti-HIV-1 activity
[1]; [3]
  IC50: > 50 µM
CEM-DNR
  IC50: > 50 µM
Entire cell line panel
  cytotoxic effect in the cell line panel (in words): activity only against selected cell lines
HCT116p53−/−
  IC50: > 50 µM
BJ
  IC50: 20.7 µM
K562
  IC50: > 50 µM
A549
  IC50: 21.3 µM
CCRF-CEM
  IC50: > 50 µM
K562-Tax
  IC50: > 50 µM
In vitro
  IC50: > 40 µM

## C=C(C)[C@@H]1CC[C@]2(C(=O)N3CCN(CCNC4=C5C=CC=[N+]5[B-](F)(F)n5cccc54)CC3)CC[C@]3(C)[C@H](CC[C@@H]4[C@@]5(C)CC[C@H](O)C(C)(C)[C@@H]5CC[C@]43C)[C@@H]12 [Compound 15, (3β)-28-{4-[N-(4,4-Difluoro-4-bora-3a,4a-diaza-s-indacene-8-yl)-2-aminoethyl]piperazine-1-yl}-3-hydroxylup-20(29)-ene-28-one]
[1]
  anti-HIV-1 activity (in words): did not exhibit any potent anti-HIV-1 activity
[1]; [3]
  IC50: > 50 µM
Entire cell line panel
  cytotoxic effect in the cell line panel (in words): did not induce any cytotoxic effect
In vitro
  IC50: > 40 µM

## C=C(C)[C@@H]1CC[C@]2(C(=O)N3CCN(CCN)CC3)CC[C@]3(C)[C@H](CC[C@@H]4[C@@]5(C)CC[C@H](OC(=O)CC(C)(C)C(=O)O)C(C)(C)[C@@H]5CC[C@]43C)[C@@H]12 [Compound 17, 4-{[(3β)-28-[4-(2-Aminoethyl)piperazine-1-yl]-28-oxolup-20(29)-ene-3-yl]oxy}-2,2-dimethyl-4-oxobutanoic acid hydrochloride]
HCT116
  IC50: > 50 µM
MRC-5
  IC50: > 50 µM
U2OS
  IC50: 44.6 µM
[1]; [3]
  IC50: < 10 µM
[1]
  IC50: 7.6 µM
CCRF-CEM lymphoblasts
  RNA synthesis by BrU (in words): stalled RNA synthesis
CEM-DNR
  IC50: > 50 µM
Entire cell line panel
  cytotoxic effect in the cell line panel (in words): inactive
[2]
  CA forms identified in released viruses (CA-SP1 processing): not only fully processed p24 CA, but also p25 CA-SP1 protein
HCT116p53−/−
  IC50: > 50 µM
BJ
  IC50: > 50 µM
K562
  IC50: > 50 µM
A549
  IC50: > 50 µM
CCRF-CEM
  IC50: 5.76 µM
K562-Tax
  IC50: > 50 µM
In vitro
  IC50: > 40 µM

## C=C(C)[C@@H]1CC[C@]2(C(=O)NCCCN=[N+]=[N-])CC[C@]3(C)[C@H](CC[C@@H]4[C@@]5(C)CC[C@H](O)C(C)(C)[C@@H]5CC[C@]43C)[C@@H]12 [Compound 1, (3β)-N-(3-Azidopropyl)-3-hydroxylup-20(29)-ene-28-amide]
HCT116
  IC50: > 50 µM
MRC-5
  IC50: > 50 µM
U2OS
  IC50: 29 µM
[1]
  anti-HIV-1 activity (in words): did not exhibit any potent anti-HIV-1 activity
[1]; [3]
  IC50: > 50 µM
CEM-DNR
  IC50: 16.8 µM
Entire cell line panel
  cytotoxic effect in the cell line panel (in words): activity only against selected cell lines
HCT116p53−/−
  IC50: > 50 µM
BJ
  IC50: > 50 µM
K562
  IC50: > 50 µM
A549
  IC50: > 50 µM
CCRF-CEM
  IC50: 8.98 µM
K562-Tax
  IC50: 10.6 µM
In vitro
  IC50: > 40 µM

## C=C(C)[C@@H]1CC[C@]2(C(=O)O)CC[C@]3(C)[C@H](CC[C@@H]4[C@@]5(C)CC[C@H](OC(=O)CC(C)(C)C(=O)O)C(C)(C)[C@@H]5CC[C@]43C)[C@@H]12 [BT, 3-O-(3,3-dimethylsuccinyl) betulinic acid, reference compound]
HCT116
  IC50: 14.2 µM
MRC-5
  IC50: > 50 µM
U2OS
  IC50: 27.6 µM
CEM-DNR
  IC50: 22.2 µM
Entire cell line panel
  cytotoxic effect in the cell line panel (in words): weak or medium cytotoxic effect
HCT116p53−/−
  IC50: 18.2 µM
BJ
  IC50: > 50 µM
K562
  IC50: 23.6 µM
A549
  IC50: 23.1 µM
CCRF-CEM
  IC50: 12.8 µM
K562-Tax
  IC50: 22 µM
